According to publication PMC9506414, “Novel 2,6,9-Trisubstituted Purines as Potent CDK Inhibitors Alleviating Trastuzumab-Resistance of HER2-Positive Breast Cancers” (Pharmaceuticals, 2022):

What was measured:
Experiment in all cases: Kinome-wide inhibition profiling
Format in all cases: biochemical
GRK3 = target: T1, GRK3 (Homo sapiens, UniProt P35626)
T1 construct: purchased Reaction Biology Corp
Description: (§1) In vitro CDK12/cyclinK assays for all compounds and in vitro kinome-wide inhibition profiling of 30d at 10 μM were performed by a CRO company (Reaction Biology Corp., San Diego, CA, USA).

ZAK = target: T2, ZAK (Homo sapiens, UniProt Q9NYL2)
T2 construct: purchased Reaction Biology Corp
Description: as §1

NEK1 = target: T3, NEK1 (Homo sapiens, UniProt Q96PY6)
T3 construct: purchased Reaction Biology Corp
Description: as §1

GRK7 = target: T4, GRK7 (Homo sapiens, UniProt Q8WTQ7)
T4 construct: purchased Reaction Biology Corp
Description: as §1

CAMK2g = target: T5, CAMK2g (Homo sapiens, UniProt Q13555)
T5 construct: purchased Reaction Biology Corp
Description: as §1

MKK4 = target: T6, MKK4 (Homo sapiens, UniProt P45985)
T6 construct: purchased Reaction Biology Corp
Description: as §1

CLK1 = target: T7, CLK1 (Homo sapiens, UniProt P49759)
T7 construct: purchased Reaction Biology Corp
T7 sequence (P49759 whole entry): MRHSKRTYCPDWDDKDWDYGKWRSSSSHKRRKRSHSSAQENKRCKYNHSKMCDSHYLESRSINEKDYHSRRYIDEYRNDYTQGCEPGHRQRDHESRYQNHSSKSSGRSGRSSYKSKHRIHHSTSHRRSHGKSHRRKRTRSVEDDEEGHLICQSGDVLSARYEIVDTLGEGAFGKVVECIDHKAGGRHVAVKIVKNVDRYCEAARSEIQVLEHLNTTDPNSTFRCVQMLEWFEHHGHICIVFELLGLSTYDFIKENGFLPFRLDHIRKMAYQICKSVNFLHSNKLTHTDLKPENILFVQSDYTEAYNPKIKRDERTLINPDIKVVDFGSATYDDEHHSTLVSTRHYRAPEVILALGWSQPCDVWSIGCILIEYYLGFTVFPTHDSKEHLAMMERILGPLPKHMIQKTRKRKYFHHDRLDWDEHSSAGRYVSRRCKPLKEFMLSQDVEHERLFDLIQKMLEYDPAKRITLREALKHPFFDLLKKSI
Description: as §1

EPHA7 = target: T8, EPHA7 (Homo sapiens, UniProt Q15375)
T8 construct: purchased Reaction Biology Corp
Description: as §1

P38-beta = target: T9, P38-beta (Homo sapiens, UniProt Q15759)
T9 construct: purchased Reaction Biology Corp
Description: as §1

TEC = target: T10, TEC (Homo sapiens, UniProt P42680)
T10 construct: purchased Reaction Biology Corp
Description: as §1

HCK = target: T11, HCK (Homo sapiens, UniProt P08631)
T11 construct: purchased Reaction Biology Corp
Description: as §1

JNK2 = target: T12, JNK2 (Homo sapiens, UniProt P45984)
T12 construct: purchased Reaction Biology Corp
Description: as §1

SGK2 = target: T13, SGK2 (Homo sapiens, UniProt Q9HBY8)
T13 construct: purchased Reaction Biology Corp
Description: as §1

P38-delta = target: T14, P38-delta (Homo sapiens, UniProt O15264)
T14 construct: purchased Reaction Biology Corp
T14 sequence (O15264 whole entry): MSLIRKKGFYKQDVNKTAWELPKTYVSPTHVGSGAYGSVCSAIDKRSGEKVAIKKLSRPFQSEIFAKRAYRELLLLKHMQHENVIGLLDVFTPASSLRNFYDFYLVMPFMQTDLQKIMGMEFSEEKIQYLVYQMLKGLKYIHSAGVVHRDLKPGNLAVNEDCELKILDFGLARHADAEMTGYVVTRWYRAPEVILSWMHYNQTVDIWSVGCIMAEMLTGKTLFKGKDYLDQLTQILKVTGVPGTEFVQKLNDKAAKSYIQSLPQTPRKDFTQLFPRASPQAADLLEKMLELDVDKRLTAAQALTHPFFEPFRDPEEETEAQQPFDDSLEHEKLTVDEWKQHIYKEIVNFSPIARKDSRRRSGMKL
Description: as §1

MYO3b = target: T15, MYO3b (Homo sapiens, UniProt Q8WXR4)
T15 construct: purchased Reaction Biology Corp
Description: as §1

PKN1 = target: T16, PKN1 (Homo sapiens, UniProt Q16512)
T16 construct: purchased Reaction Biology Corp
Description: as §1

ERK7 = target: T17, ERK7 (Homo sapiens, UniProt Q8TD08)
T17 construct: purchased Reaction Biology Corp
Description: as §1

MAP4K5 = target: T18, MAP4K5 (Homo sapiens, UniProt Q9Y4K4)
T18 construct: purchased Reaction Biology Corp
Description: as §1

MAPKAPK5 = target: T19, MAPKAPK5 (Homo sapiens, UniProt Q8IW41)
T19 construct: purchased Reaction Biology Corp
Description: as §1

PRKCQ = target: T20, PRKCQ (Homo sapiens, UniProt Q04759)
T20 construct: purchased Reaction Biology Corp
Description: as §1

DYRK4 = target: T21, DYRK4 (Homo sapiens, UniProt Q9NR20)
T21 construct: purchased Reaction Biology Corp
Description: as §1

MNK1 = target: T22, MNK1 (Homo sapiens, UniProt Q9BUB5)
T22 construct: purchased Reaction Biology Corp
Description: as §1

MLCK = target: T23, MLCK (Homo sapiens, UniProt Q15746)
T23 construct: purchased Reaction Biology Corp
Description: as §1

MYLK3 = target: T24, MYLK3 (Homo sapiens, UniProt Q32MK0)
T24 construct: purchased Reaction Biology Corp
T24 sequence (Q32MK0 whole entry): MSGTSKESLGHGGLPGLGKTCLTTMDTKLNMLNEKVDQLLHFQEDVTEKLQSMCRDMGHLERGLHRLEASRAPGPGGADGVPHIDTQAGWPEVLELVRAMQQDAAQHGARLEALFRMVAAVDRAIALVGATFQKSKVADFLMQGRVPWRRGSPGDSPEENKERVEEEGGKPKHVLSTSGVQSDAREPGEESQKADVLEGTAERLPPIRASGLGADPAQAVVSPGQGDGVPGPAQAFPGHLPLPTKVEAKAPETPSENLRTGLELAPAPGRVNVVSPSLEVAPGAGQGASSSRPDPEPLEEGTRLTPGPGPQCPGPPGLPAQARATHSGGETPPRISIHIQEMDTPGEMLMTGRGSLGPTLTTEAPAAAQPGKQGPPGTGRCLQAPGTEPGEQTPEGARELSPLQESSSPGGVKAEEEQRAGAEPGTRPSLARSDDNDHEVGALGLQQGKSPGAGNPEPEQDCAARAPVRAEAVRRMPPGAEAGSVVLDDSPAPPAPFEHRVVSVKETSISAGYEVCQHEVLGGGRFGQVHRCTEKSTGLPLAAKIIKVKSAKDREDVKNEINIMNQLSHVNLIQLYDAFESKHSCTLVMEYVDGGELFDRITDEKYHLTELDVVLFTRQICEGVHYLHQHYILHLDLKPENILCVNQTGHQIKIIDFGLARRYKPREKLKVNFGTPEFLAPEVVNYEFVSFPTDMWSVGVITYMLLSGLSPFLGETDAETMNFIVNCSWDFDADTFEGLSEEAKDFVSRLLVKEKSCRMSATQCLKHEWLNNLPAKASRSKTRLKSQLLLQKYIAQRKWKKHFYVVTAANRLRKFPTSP
Description: as §1

CAMK1b = target: T25, CAMK1b (Homo sapiens, UniProt Q6P2M8)
T25 construct: purchased Reaction Biology Corp
Description: as §1

BMPR1B = target: T26, BMPR1B (Homo sapiens, UniProt O00238)
T26 construct: purchased Reaction Biology Corp
Description: as §1

LIMK2 = target: T27, LIMK2 (Homo sapiens, UniProt P53671)
T27 construct: purchased Reaction Biology Corp
Description: as §1

TLK2 = target: T28, TLK2 (Homo sapiens, UniProt Q86UE8)
T28 construct: purchased Reaction Biology Corp
Description: as §1

PHKg2 = target: T29, PHKg2 (Homo sapiens, UniProt P15735)
T29 construct: purchased Reaction Biology Corp
Description: as §1

CAMKK1 = target: T30, CAMKK1 (Homo sapiens, UniProt Q8N5S9)
T30 construct: purchased Reaction Biology Corp
Description: as §1

FYN = target: T31, FYN (Homo sapiens, UniProt P06241)
T31 construct: purchased Reaction Biology Corp
Description: as §1

FGR = target: T32, FGR (Homo sapiens, UniProt P09769)
T32 construct: purchased Reaction Biology Corp
T32 sequence (P09769 whole entry): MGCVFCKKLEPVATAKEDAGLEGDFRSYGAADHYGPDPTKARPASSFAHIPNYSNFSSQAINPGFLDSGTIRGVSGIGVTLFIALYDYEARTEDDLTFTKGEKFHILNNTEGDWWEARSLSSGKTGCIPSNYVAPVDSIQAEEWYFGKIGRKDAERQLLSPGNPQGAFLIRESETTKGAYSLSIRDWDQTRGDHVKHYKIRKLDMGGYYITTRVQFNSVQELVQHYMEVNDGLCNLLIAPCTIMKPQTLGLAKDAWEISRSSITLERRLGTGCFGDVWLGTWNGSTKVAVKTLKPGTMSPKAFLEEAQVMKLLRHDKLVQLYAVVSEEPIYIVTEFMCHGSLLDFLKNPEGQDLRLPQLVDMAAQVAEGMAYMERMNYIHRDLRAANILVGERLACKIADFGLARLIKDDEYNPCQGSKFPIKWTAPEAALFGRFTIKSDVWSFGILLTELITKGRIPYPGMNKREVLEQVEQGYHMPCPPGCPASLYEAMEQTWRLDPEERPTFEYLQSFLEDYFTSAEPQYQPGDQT
Description: as §1

JNK3 = target: T33, JNK3 (Homo sapiens, UniProt P53779)
T33 construct: purchased Reaction Biology Corp
Description: as §1

MST2 = target: T34, MST2 (Homo sapiens, UniProt Q13188)
T34 construct: purchased Reaction Biology Corp
Description: as §1

PIM2 = target: T35, PIM2 (Homo sapiens, UniProt Q9P1W9)
T35 construct: purchased Reaction Biology Corp
Description: as §1

MKK7 = target: T36, MKK7 (Homo sapiens, UniProt O14733)
T36 construct: purchased Reaction Biology Corp
T36 sequence (O14733 whole entry): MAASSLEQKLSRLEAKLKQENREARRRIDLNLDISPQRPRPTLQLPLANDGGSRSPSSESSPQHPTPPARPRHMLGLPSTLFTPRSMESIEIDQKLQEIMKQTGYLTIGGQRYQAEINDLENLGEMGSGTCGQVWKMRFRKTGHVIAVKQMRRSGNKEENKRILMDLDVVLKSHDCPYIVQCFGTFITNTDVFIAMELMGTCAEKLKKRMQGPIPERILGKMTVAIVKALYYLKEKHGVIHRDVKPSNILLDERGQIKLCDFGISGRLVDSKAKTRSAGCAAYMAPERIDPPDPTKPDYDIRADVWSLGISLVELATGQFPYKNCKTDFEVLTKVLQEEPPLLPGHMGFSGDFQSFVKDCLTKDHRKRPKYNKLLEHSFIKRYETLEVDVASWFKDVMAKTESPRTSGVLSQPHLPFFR
Description: as §1

MASTL = target: T37, MASTL (Homo sapiens, UniProt Q96GX5)
T37 construct: purchased Reaction Biology Corp
Description: as §1

CDK4/cyclinD1 = target: T38, CDK4/cyclinD1 (Homo sapiens, UniProt P11802)
T38 construct: purchased Reaction Biology Corp
Description: as §1

DAPK2 = target: T39, DAPK2 (Homo sapiens, UniProt Q9UIK4)
T39 construct: purchased Reaction Biology Corp
T39 sequence (Q9UIK4 whole entry): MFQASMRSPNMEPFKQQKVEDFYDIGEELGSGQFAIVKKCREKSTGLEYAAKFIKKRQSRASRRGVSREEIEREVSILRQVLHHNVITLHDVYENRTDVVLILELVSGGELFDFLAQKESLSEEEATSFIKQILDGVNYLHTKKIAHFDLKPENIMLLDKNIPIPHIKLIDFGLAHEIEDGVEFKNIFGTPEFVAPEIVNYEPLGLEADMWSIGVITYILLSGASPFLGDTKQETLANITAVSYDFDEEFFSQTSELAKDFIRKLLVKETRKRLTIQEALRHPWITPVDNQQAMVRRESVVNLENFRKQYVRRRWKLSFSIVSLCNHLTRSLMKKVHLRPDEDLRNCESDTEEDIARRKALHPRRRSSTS
Description: as §1

YANK3 = target: T40, YANK3 (Homo sapiens, UniProt Q86UX6)
T40 construct: purchased Reaction Biology Corp
T40 sequence (Q86UX6 whole entry): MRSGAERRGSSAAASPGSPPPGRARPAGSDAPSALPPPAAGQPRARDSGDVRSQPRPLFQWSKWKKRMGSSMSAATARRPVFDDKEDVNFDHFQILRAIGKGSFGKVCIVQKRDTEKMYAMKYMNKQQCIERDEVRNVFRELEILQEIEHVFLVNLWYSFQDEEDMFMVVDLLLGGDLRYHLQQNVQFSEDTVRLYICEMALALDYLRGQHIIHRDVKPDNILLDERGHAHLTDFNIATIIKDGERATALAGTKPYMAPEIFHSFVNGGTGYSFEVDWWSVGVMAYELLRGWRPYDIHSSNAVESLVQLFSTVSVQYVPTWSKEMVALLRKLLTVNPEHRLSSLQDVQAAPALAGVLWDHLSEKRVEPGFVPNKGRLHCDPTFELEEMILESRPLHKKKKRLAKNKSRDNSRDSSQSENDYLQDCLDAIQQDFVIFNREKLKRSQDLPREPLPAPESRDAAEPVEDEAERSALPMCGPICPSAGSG
Description: as §1

LIMK1 = target: T41, LIMK1 (Homo sapiens, UniProt P53667)
T41 construct: purchased Reaction Biology Corp
Description: as §1

DMPK2 = target: T42, DMPK2 (Homo sapiens, UniProt Q6DT37)
T42 construct: purchased Reaction Biology Corp
Description: as §1

DYRK1B = target: T43, DYRK1B (Homo sapiens, UniProt Q9Y463)
T43 construct: purchased Reaction Biology Corp
T43 sequence (Q9Y463 whole entry): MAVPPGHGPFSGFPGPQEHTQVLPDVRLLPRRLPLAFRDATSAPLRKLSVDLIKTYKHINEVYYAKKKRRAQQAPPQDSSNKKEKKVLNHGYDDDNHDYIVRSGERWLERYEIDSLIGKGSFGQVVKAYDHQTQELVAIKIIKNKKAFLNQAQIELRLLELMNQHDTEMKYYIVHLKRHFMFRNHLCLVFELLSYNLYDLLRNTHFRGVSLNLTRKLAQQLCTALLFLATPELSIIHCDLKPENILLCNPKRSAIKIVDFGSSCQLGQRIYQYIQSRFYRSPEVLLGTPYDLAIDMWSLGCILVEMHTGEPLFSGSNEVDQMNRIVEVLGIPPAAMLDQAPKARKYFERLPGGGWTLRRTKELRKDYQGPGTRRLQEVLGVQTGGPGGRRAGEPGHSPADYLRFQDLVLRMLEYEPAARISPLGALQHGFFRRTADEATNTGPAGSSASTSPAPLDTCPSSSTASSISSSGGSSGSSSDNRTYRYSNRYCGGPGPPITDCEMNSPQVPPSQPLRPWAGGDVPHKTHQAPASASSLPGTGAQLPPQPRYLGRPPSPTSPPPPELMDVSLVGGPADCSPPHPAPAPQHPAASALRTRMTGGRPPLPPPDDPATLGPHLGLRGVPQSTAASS
Description: as §1

SNRK = target: T44, SNRK (Homo sapiens, UniProt Q9NRH2)
T44 construct: purchased Reaction Biology Corp
Description: as §1

T1 sequence (P35626 whole entry): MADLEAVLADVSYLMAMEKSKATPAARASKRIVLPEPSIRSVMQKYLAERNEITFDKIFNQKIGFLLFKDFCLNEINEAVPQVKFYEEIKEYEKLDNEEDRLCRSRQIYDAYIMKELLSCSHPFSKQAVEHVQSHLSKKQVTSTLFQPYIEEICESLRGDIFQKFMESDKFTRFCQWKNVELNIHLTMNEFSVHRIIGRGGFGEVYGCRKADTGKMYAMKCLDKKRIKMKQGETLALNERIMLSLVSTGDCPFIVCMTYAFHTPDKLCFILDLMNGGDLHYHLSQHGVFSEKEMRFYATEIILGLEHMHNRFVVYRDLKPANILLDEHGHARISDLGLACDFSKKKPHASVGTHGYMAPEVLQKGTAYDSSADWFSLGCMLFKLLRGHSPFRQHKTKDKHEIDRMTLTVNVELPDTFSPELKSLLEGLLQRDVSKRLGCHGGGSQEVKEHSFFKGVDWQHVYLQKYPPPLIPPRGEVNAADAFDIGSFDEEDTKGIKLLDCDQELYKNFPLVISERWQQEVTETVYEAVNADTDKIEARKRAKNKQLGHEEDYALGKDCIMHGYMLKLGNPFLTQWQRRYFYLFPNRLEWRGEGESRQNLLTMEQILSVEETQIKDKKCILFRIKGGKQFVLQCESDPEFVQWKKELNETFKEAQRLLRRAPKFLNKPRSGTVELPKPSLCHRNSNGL

For CCn1cnc2c(NCc3ccc(-c4ccccn4)nc3)nc(-c3ccc(N)nc3)nc21 [Compound 30d, N-([2,2′-Bipyridin]-5-ylmethyl)-2-(6-aminopyridin-3-yl)-9-ethyl-9H-purin-6-amine], the remaining activity at 10 µM (GRK3) was 102%, the remaining activity at 10 µM (ZAK) was 97.5% and the remaining activity at 10 µM (NEK1) was 92.3%. It also gave a remaining activity at 10 µM (GRK7) of 49.7%, a remaining activity at 10 µM (CAMK2g) of 105% and a remaining activity at 10 µM (MKK4) of 96.4%. It also gave a remaining activity at 10 µM (CLK1) of 13.7%, a remaining activity at 10 µM (EPHA7) of 31.3% and a remaining activity at 10 µM (P38-beta) of 64.7%. For the same molecule, the remaining activity at 10 µM (TEC) was 71.5%, the remaining activity at 10 µM (HCK) was 46.5% and the remaining activity at 10 µM (JNK2) was 61.7%. The remaining activity at 10 µM (SGK2) was 84.7%, the remaining activity at 10 µM (P38-delta) was 102% and the remaining activity at 10 µM (MYO3b) was 68.1%. The remaining activity at 10 µM (PKN1) was 85.4%, the remaining activity at 10 µM (ERK7) was 13.5% and the remaining activity at 10 µM (MAP4K5) was 88.3%. The remaining activity at 10 µM (MAPKAPK5) was 103%, the remaining activity at 10 µM (PRKCQ) was 79.8% and the remaining activity at 10 µM (DYRK4) was 89.3%. For the same molecule, the remaining activity at 10 µM (MNK1) was 89.3%, the remaining activity at 10 µM (MLCK) was 63.4% and the remaining activity at 10 µM (MYLK3) was 105%. For the same molecule, the remaining activity at 10 µM (CAMK1b) was 66.8%, the remaining activity at 10 µM (BMPR1B) was 115% and the remaining activity at 10 µM (LIMK2) was 76.5%. The remaining activity at 10 µM (TLK2) was 72.2%, the remaining activity at 10 µM (PHKg2) was 56.9% and the remaining activity at 10 µM (CAMKK1) was 18.7%. It also gave a remaining activity at 10 µM (FYN) of 81%, a remaining activity at 10 µM (FGR) of 54.6% and a remaining activity at 10 µM (JNK3) of 48.7%. The remaining activity at 10 µM (MST2) was 53.5%, the remaining activity at 10 µM (PIM2) was 93.8% and the remaining activity at 10 µM (MKK7) was 96.3%. For the same molecule, the remaining activity at 10 µM (MASTL) was 103%, the remaining activity at 10 µM (CDK4/cyclinD1) was 33.5% and the remaining activity at 10 µM (DAPK2) was 85.7%. For the same molecule, the remaining activity at 10 µM (YANK3) was 86.6%, the remaining activity at 10 µM (LIMK1) was 59.9% and the remaining activity at 10 µM (DMPK2) was 92.4%. The inhibition at 10 µM (DYRK1B) was > 95%, the remaining activity at 10 µM (DYRK1B) was 3.2% and the remaining activity at 10 µM (SNRK) was 93%.
